Experimental findings from the OligoGym collection are described below.

Several values for one entry are separate records, joined by “and”; a condition that tells them apart may be missing. Equal values may be shown once. After the bases stand the sugars from the 5' end (letter, count) and the backbone: PS all phosphorothioate, else s phosphorothioate and o phosphodiester by linkage. Methylation of C is not given here. e = 2'-O-(2-methoxyethyl) (MOE); k = constrained ethyl (cEt); d = 2'-deoxy (DNA)

The target of one data set is DGAT2. The settings on record: ASO.
The next data set concerns the target SOD1. The settings on record: ASO.

Regarding “CACTTGCTTGAGGTCAGGGT (sugars e5 d10 e5, PS)”, the target mRNA inhibition with DGAT2 (HepG2, 2.5 µM) is 81% and 75%; with DGAT2 (HepG2, 10 µM), 81% and 74%.
Regarding “AGCCCTCCTCGAAGATCACC (sugars e5 d10 e5, PS)”, the target mRNA inhibition with DGAT2 (HepG2, 0.12 µM) amounted to 39%.
Same read-out and setting: the value for “CCCACTGGAGCACTGAGATG (sugars e2 d13 e5, PS)” was 70%; that for “CAGGTAAGGCCGTATGCCTG (sugars e3 d14 e3, PS)” was 72%.
Same read-out and setting: the value for “GAAGGCACAGAAAAGTGAGG (sugars e5 d10 e5, PS)” was 11%; that for “TCTTTTAAATAACCCACAGA (sugars e5 d10 e5, PS)” was 10%; that for “TGAGGCCCTTCAGCTTGTGC (sugars e5 d10 e5, PS)” was 49%.
With “ACTCAAAAATATACATGCTC (sugars e5 d10 e5, PS)”, the target mRNA inhibition with DGAT2 (HepG2, 2.5 µM) stood at 67%; with DGAT2 (HepG2, 10 µM) it was 92%.
In the same order, the values of “TTGGATAGTCGATTTACCAG (sugars e5 d10 e5, PS)” are 62% and 92%.
As for “ATGGTGTGTTGGCTCCCTGT (sugars e5 d10 e5, PS)”, the target mRNA inhibition in the data set with DGAT2 (HepG2, 2.5 µM) was determined as 53%; with DGAT2 (HepG2, 10 µM) it was 53%.
As for “TGTTGCCATCATACTAGACT (sugars e5 d10 e5, PS)”, the target mRNA inhibition in the data set with DGAT2 (HepG2, 2.5 µM) stood at 64%; with DGAT2 (HepG2, 10 µM) it was 75%.
For “GCCATCATACTAGACTATGC (sugars e5 d10 e5, PS)”, the target mRNA inhibition in the data set with DGAT2 (HepG2, 2.5 µM) was 88% and 81%; with DGAT2 (HepG2, 10 µM), 91% and 90%.
With “CCCCCATCCTCATCCTGGAG (sugars e5 d10 e5, PS)”, in the data set with DGAT2 (HepG2, 0.12 µM), the target mRNA inhibition was 7%.
On to “CACCTGCTTGTACACTTCAT (sugars e5 d10 e5, PS)”, for which the target mRNA inhibition was found to be 59% with DGAT2 (HepG2, 2.5 µM) and 90% with DGAT2 (HepG2, 10 µM).
As for “CAGGCAGGTGTCAGAGGGCT (sugars e5 d10 e5, PS)”, the target mRNA inhibition with DGAT2 (HepG2, 0.12 µM) is 21%.
Turning to “GCATTGCCACTCCCATTCTT (sugars e5 d10 e5, PS)”, the target mRNA inhibition with DGAT2 (HepG2, 20 µM) was 94% and 91% and 95%.
On to “AGTCACTGACTCACAACAGC (sugars e5 d10 e5, PS)”, for which the target mRNA inhibition is 45% with DGAT2 (HepG2, 2.5 µM) and 83% with DGAT2 (HepG2, 10 µM).
On to “TTTTAAATAACCCACAGACA (sugars e5 d10 e5, PS)”, for which the target mRNA inhibition worked out at 10% with DGAT2 (HepG2, 0.12 µM); 92% in the data set with DGAT2 (HepG2, 2.5 µM); 60% with DGAT2 (HepG2, 10 µM); 81% with DGAT2 (HepG2, 20 µM).
Regarding “GCAATGCCAATGCCTAG (sugars e3 d10 e4, PS)”, the target mRNA inhibition in the data set with DGAT2 (HepG2, 2.5 µM) was 69% and 80%; with DGAT2 (HepG2, 10 µM), 78% and 87%.
Regarding “GCGGCAGAGCCAGGACTGAA (sugars e5 d10 e5, PS)”, the target mRNA inhibition in the data set with DGAT2 (HepG2, 0.12 µM) was determined as 35%.
The same measure, in the same setting: the value for “CCACTGTGACCTCCTGCCAC (sugars e5 d10 e5, PS)” was 30%.
On to “CAGGATACATTTCTACAG (sugars e5 d8 e5, linkages s1 o3 s9 o2 s2)”, for which the target mRNA inhibition was found to be 2% with SOD1 (A431, 0.12 µM); 31% with SOD1 (A431, 0.6 µM); 9% in the data set with SOD1 (A431, 3 µM); 18% with SOD1 (A431, 15 µM); 14% in the data set with SOD1 (HepG2, 0.222 µM); 31% in the data set with SOD1 (HepG2, 0.667 µM). In addition, the target mRNA inhibition with SOD1 (HepG2, 2 µM) worked out at 54%; in the data set with SOD1 (HepG2, 6 µM), 84%.
In the case of “GCGATCCCAATTACACC (sugars e3 k2 d7 k2 e3, PS)”, the target mRNA inhibition in the data set with SOD1 (HepG2, 3 µM) is 19%.
For “GATACATTTCTACAGCTA (sugars e5 d8 e5, linkages s1 o3 s9 o2 s2)”, the target mRNA inhibition in the data set with SOD1 (A431, 0.12 µM) came to 7%; with SOD1 (A431, 0.6 µM), 15%; with SOD1 (A431, 3 µM) it was 39%; with SOD1 (A431, 15 µM) it was 52%; with SOD1 (HepG2, 0.222 µM), 28%; with SOD1 (HepG2, 0.667 µM), 59%. In addition, the target mRNA inhibition with SOD1 (HepG2, 2 µM) was found to be 73%; in the data set with SOD1 (HepG2, 6 µM) it was 85%.
In the data set with SOD1 (HepG2, 3 µM), “CTGCACTGGTACAGCCT (sugars e3 k2 d7 k2 e3, PS)” yielded a target mRNA inhibition of 3%.
Still for that read-out and setting: the value for “CCTTCACTGGTCCATTA (sugars e3 k2 d7 k2 e3, PS)” was 8%.
Still for that read-out and setting: the value for “CATCTGCTTTTTCATGGACC (sugars e5 d10 e5, PS)” was 46%.
In the data set with SOD1 (HepG2, 4 µM), “CTCGAAATTGATGATGCCCT (sugars e5 d10 e5, PS)” displayed a target mRNA inhibition of 31%.
On to “ACAGTGTTTAATGTTTA (sugars e2 k2 d8 k2 e3, PS)”, for which the target mRNA inhibition in the data set with SOD1 (HepG2, 0.1875 µM) is 39%; in the data set with SOD1 (HepG2, 0.75 µM) it was 69%; with SOD1 (HepG2, 3 µM), 82%; with SOD1 (HepG2, 4 µM) it was 78%; in the data set with SOD1 (HepG2, 5 µM), 83%; with SOD1 (HepG2, 12 µM) it was 84% and 86%.
Regarding “GAAATTCTGACAAGTTT (sugars e3 k2 d7 k2 e3, PS)”, the target mRNA inhibition in the data set with SOD1 (HepG2, 3 µM) came out at 14%.
